Data taken from patent US11807835B2, “Detergent compositions containing a stabilized enzyme by phosphonates” (ECOLAB USA INC., priority 2016, dated 2023).

System: protease
Assay: Protease activity retention in detergent use solution (4000 ppm, 5 GPG water; peptidyl substrate, glycine buffer pH 9.0)
Type: biochemical
Conditions: for Relative Protease Enzyme Activity: use solution at 120° F.
Procedure: The enzyme activities in the detergents with different phosphonate levels were tested at 4000 ppm in 5 grains per gallon (GPG) water at 120° F. with various time points collected up to 4 hours, after a use solution was generated from the detergent composition. During the tests, the samples at different time points were collected and immediately frozen in an acetone/dry ice bath and stored in −80° C. before the activity of the enzyme was evaluated. For the use of such an assay, t=0 min was the reference point for 100% enzyme activity.
Assays of enzyme activity in formulations (% retention) were conducted to simulate a presoak condition in a beaker using the chemistry, temperature, and pH conditions relevant to manual warewash or presoak applications. Enzyme activity is an indicator of the stability of the enzyme in the detergent, specifically in an aqueous use solution within a sump (which is under conditions of high pH, temperature and dilution).
The analysis by protease assay was conducted as follows. For the assays, a detergent composition was used to generate an aqueous use solution evaluated herein.
Enzyme activity under presoak or manual warewash conditions was traced quantitatively using a standard protease assay. Samples were prepared under bench top conditions, whereby the use solution from a detergent composition or detergent was obtained and maintained at a presoak or manual warewash temperature in a stirring water bath. After the time course for assessing enzyme stability is initiated, aliquots were taken at various time points and flash-frozen. A time=0 sample was prepared for each series by dissolving the detergent formulation at room temperature, mixing thoroughly, and flash freezing. Samples were thawed and diluted as necessary in an assay buffer usually for use in the protease assay. A glycine buffer at pH 9.0 is used here. The assay monitored the direct reaction of the protease on a small, commercially available peptidyl substrate, with liberation of the product providing correlation to the active enzyme content. The product was detected using a plate reader with an appreciable dynamic range (upper absorbance limit of the instrument >3.5). Enzyme activity levels were assessed relative to a calibration curve with average values for replicate tests used to map protease stability under presoak or manual warewash use conditions. Enzyme retention at each time point was calculated as the % enzyme activity relative to the time=0 sample.

[1] = base formula, phosphonate 0.3 wt-%, lower half of Table 4A, time 5
[2] = base formula, phosphonate 0.3 wt-%, lower half of Table 4A, time 20
[3] = base formula, phosphonate 0.3 wt-%, lower half of Table 4A, time 90
[4] = base formula, phosphonate 0.3 wt-%, lower half of Table 4A, time 120
[5] = base formula, phosphonate 0.3 wt-%, lower half of Table 4A, time 150, unit not given
[6] = base formula, phosphonate 0.3 wt-%, lower half of Table 4A, time 210
[7] = base formula, phosphonate 0.3 wt-%, lower half of Table 4A, time '0'
[8] = base formula, phosphonate 0.3 wt-%, lower half of Table 4A, time '40'
[9] = base formula, phosphonate 0.3 wt-%, lower half of Table 4A, time 'Blank'
[10] = base formula, phosphonate 0.3 wt-%, lower half of Table 4A, time row printed '10'
[11] = base formula, phosphonate 0.3 wt-%, lower half of Table 4A, time row printed '60'
[12] = base formula, phosphonate 0.3 wt-%, lower half of Table 4A, time row printed '180'
[13] = base formula, phosphonate 0.6 wt-%, time 0 min
[14] = base formula, phosphonate 0.6 wt-%, time 5 min
[15] = base formula, phosphonate 0.6 wt-%, time 10 min
[16] = base formula, phosphonate 0.6 wt-%, time 20 min
[17] = base formula, phosphonate 0.6 wt-%, time 40 min
[18] = base formula, phosphonate 0.6 wt-%, time 60 min
[19] = base formula, phosphonate 0.6 wt-%, time 90 min
[20] = base formula, phosphonate 0.6 wt-%, time 120 min
[21] = base formula, phosphonate 0.6 wt-%, time 150 min
[22] = base formula, phosphonate 0.6 wt-%, time 180 min
[23] = base formula, phosphonate 0.6 wt-%, time 210 min
[24] = base formula, phosphonate 0.6 wt-%, time 240 min
[25] = base formula, phosphonate at 0.1% elemental phosphorus, time 0 min
[26] = base formula, phosphonate at 0.1% elemental phosphorus, time 5 min
[27] = base formula, phosphonate at 0.1% elemental phosphorus, time 10 min
[28] = base formula, phosphonate at 0.1% elemental phosphorus, time 20 min
[29] = base formula, phosphonate at 0.1% elemental phosphorus, time 40 min
[30] = base formula, phosphonate at 0.1% elemental phosphorus, time 60 min
[31] = base formula, phosphonate at 0.1% elemental phosphorus, time 90 min
[32] = base formula, phosphonate at 0.1% elemental phosphorus, time 120 min
[33] = base formula, phosphonate at 0.1% elemental phosphorus, time 150 min
[34] = base formula, phosphonate at 0.1% elemental phosphorus, time 180 min
[35] = base formula, phosphonate at 0.1% elemental phosphorus, time 210 min
[36] = base formula, phosphonate at 0.1% elemental phosphorus, time 240 min

Molecule: Monoethanolamine phosphonate [MEAP]
- Relative Protease Enzyme Activity [1]: 98.29%
- Relative Protease Enzyme Activity [2]: 90.19%
- Relative Protease Enzyme Activity [3]: 72.58%
- Relative Protease Enzyme Activity [4]: 68.59%
- Relative Protease Enzyme Activity [5]: 63.56%
- Relative Protease Enzyme Activity [6]: 60.60%
- Relative Protease Enzyme Activity [7]: 103.02%
- Relative Protease Enzyme Activity [8]: 82.48%
- Relative Protease Enzyme Activity [9]: 100.00%
- Relative Protease Enzyme Activity [10]: 96.59%
- Relative Protease Enzyme Activity [11]: 79.14%
- Relative Protease Enzyme Activity [12]: 58.70%
- Relative Protease Enzyme Activity [13]: 100.00%
- Relative Protease Enzyme Activity [14]: 106.85%
- Relative Protease Enzyme Activity [15]: 101.06%
- Relative Protease Enzyme Activity [16]: 104.08%
- Relative Protease Enzyme Activity [17]: 95.75%
- Relative Protease Enzyme Activity [18]: 95.13%
- Relative Protease Enzyme Activity [19]: 86.12%
- Relative Protease Enzyme Activity [20]: 85.48%
- Relative Protease Enzyme Activity [21]: 80.22%
- Relative Protease Enzyme Activity [22]: 82.71%
- Relative Protease Enzyme Activity [23]: 70.64%
- Relative Protease Enzyme Activity [24]: 72.77%
- Relative Protease Enzyme Activity [25]: 100.00%
- Relative Protease Enzyme Activity [26]: 119.22%
- Relative Protease Enzyme Activity [27]: 118.42%
- Relative Protease Enzyme Activity [28]: 113.68%
- Relative Protease Enzyme Activity [29]: 108.32%
- Relative Protease Enzyme Activity [30]: 105.97%
- Relative Protease Enzyme Activity [31]: 95.99%
- Relative Protease Enzyme Activity [32]: 91.30%
- Relative Protease Enzyme Activity [33]: 82.74%
- Relative Protease Enzyme Activity [34]: 81.94%
- Relative Protease Enzyme Activity [35]: 79.85%
- Relative Protease Enzyme Activity [36]: 75.73%

Molecule: Diglycolamine phosphonate [DGAP]
- Relative Protease Enzyme Activity (All Ash formula, phosphonate 0.3 wt-%, time 0 min): 100.00%
- Relative Protease Enzyme Activity (All Ash formula, phosphonate 0.3 wt-%, time 5 min): 81.79%
- Relative Protease Enzyme Activity (All Ash formula, phosphonate 0.3 wt-%, time 10 min): 75.39%
- Relative Protease Enzyme Activity (All Ash formula, phosphonate 0.3 wt-%, time 20 min): 59.47%
- Relative Protease Enzyme Activity (All Ash formula, phosphonate 0.3 wt-%, time 40 min): 39.98%
- Relative Protease Enzyme Activity (All Ash formula, phosphonate 0.3 wt-%, time 60 min): 27.49%
- Relative Protease Enzyme Activity (All Ash formula, phosphonate 0.3 wt-%, time 90 min): 18.95%
- Relative Protease Enzyme Activity (All Ash formula, phosphonate 0.3 wt-%, time 120 min): 12.48%
- Relative Protease Enzyme Activity (All Ash formula, phosphonate 0.3 wt-%, time 150 min): 10.56%
- Relative Protease Enzyme Activity (All Ash formula, phosphonate 0.3 wt-%, time 180 min): 9.69%
- Relative Protease Enzyme Activity (All Ash formula, phosphonate 0.3 wt-%, time 210 min): 7.02%
- Relative Protease Enzyme Activity (All Ash formula, phosphonate 0.3 wt-%, time 240 min): 6.34%
- protease stability in all ash formula (all ash formula, versus same composition with PBTC or HEDP without amine(s), FIG. 2D): more stable
- Relative Protease Enzyme Activity [1]: 98.30%
- Relative Protease Enzyme Activity [2]: 91.75%
- Relative Protease Enzyme Activity [3]: 84.87%
- Relative Protease Enzyme Activity [4]: 82.96%
- Relative Protease Enzyme Activity [5]: 82.44%
- Relative Protease Enzyme Activity [6]: 76.14%
- Relative Protease Enzyme Activity [7]: 100.00%
- Relative Protease Enzyme Activity [8]: 89.16%
- Relative Protease Enzyme Activity [9]: 100.00%
- Relative Protease Enzyme Activity [10]: 92.44%
- Relative Protease Enzyme Activity [11]: 79.16%
- Relative Protease Enzyme Activity [12]: 75.52%
- Relative Protease Enzyme Activity [13]: 100.00%
- Relative Protease Enzyme Activity [14]: 105.28%
- Relative Protease Enzyme Activity [15]: 100.03%
- Relative Protease Enzyme Activity [16]: 101.24%
- Relative Protease Enzyme Activity [17]: 100.88%
- Relative Protease Enzyme Activity [19]: 98.76%
- Relative Protease Enzyme Activity [20]: 93.04%
- Relative Protease Enzyme Activity [21]: 88.27%
- Relative Protease Enzyme Activity [22]: 86.23%
- Relative Protease Enzyme Activity [23]: 88.24%
- Relative Protease Enzyme Activity [24]: 89.57%
- Relative Protease Enzyme Activity [25]: 100.00%
- Relative Protease Enzyme Activity [26]: 98.29%
- Relative Protease Enzyme Activity [27]: 103.47%
- Relative Protease Enzyme Activity [28]: 101.47%
- Relative Protease Enzyme Activity [29]: 88.60%
- Relative Protease Enzyme Activity [30]: 86.17%
- Relative Protease Enzyme Activity [31]: 85.84%
- Relative Protease Enzyme Activity [32]: 83.06%
- Relative Protease Enzyme Activity [33]: 81.53%
- Relative Protease Enzyme Activity [34]: 76.41%
- Relative Protease Enzyme Activity [35]: 74.23%
- Relative Protease Enzyme Activity [36]: 72.01%

Molecule: NCP(=O)(O)O [AMPA, Aminomethyl phosphonic acid]
- protease stability (base formula, compared with ATMP, DGAP, PAPEMP, MEAP): improves protease stability, but to a lesser extent
- Relative Protease Enzyme Activity [1]: 86.30%
- Relative Protease Enzyme Activity [2]: 63.30%
- Relative Protease Enzyme Activity [3]: 37.90%
- Relative Protease Enzyme Activity [4]: 31.17%
- Relative Protease Enzyme Activity [5]: 28.70%
- Relative Protease Enzyme Activity [6]: 22.72%
- Relative Protease Enzyme Activity [7]: 100.00%
- Relative Protease Enzyme Activity [8]: 51.37%
- Relative Protease Enzyme Activity [9]: 85.83%
- Relative Protease Enzyme Activity [10]: 78.58%
- Relative Protease Enzyme Activity [11]: 44.31%
- Relative Protease Enzyme Activity [12]: 25.64%
- Relative Protease Enzyme Activity [13]: 100.00%
- Relative Protease Enzyme Activity [14]: 109.27%
- Relative Protease Enzyme Activity [15]: 94.52%
- Relative Protease Enzyme Activity [16]: 84.97%
- Relative Protease Enzyme Activity [17]: 77.92%
- Relative Protease Enzyme Activity [18]: 75.86%
- Relative Protease Enzyme Activity [19]: 62.50%
- Relative Protease Enzyme Activity [20]: 54.43%
- Relative Protease Enzyme Activity [21]: 51.19%
- Relative Protease Enzyme Activity [22]: 47.47%
- Relative Protease Enzyme Activity [23]: 43.42%
- Relative Protease Enzyme Activity [24]: 40.00%
- Relative Protease Enzyme Activity [25]: 107.11%
- Relative Protease Enzyme Activity [26]: 100.00%
- Relative Protease Enzyme Activity [27]: 99.75%
- Relative Protease Enzyme Activity [28]: 84.62%
- Relative Protease Enzyme Activity [29]: 70.58%
- Relative Protease Enzyme Activity [30]: 62.19%
- Relative Protease Enzyme Activity [31]: 49.17%
- Relative Protease Enzyme Activity [32]: 43.34%
- Relative Protease Enzyme Activity [33]: 38.26%
- Relative Protease Enzyme Activity [34]: 34.55%
- Relative Protease Enzyme Activity [35]: 32.27%
- Relative Protease Enzyme Activity [36]: 28.25%
